Read-outs that look alike come from different tables or passages of the source.
Key:
[1] = cited from earlier work
[2] = test system: non-alcoholic fatty liver pathway genes in healthy human cells; test: Microarray experiment: gene expression related to fatty liver; format: cell-based; conditions: healthy human cells treated for 3 days; ADIPOR2, PRKAG2, IRS1, PIK3R1, NFKB1, MAP3K11, BID, CYCS, BAX, CASP3, TGFB1
Description: All changes in the level of gene expression related to fatty liver in healthy human cells were determined by this method upon being treated with sodium borates for 3 days. It was determined how these genes affect the pathway related to fatty liver. As a result of the microarray experiment, it is understood that the expression level of many genes in the non-alcoholic fatty liver pathway decreased by 2 times and more, and fatty liver was prevented as the pathway lost its function substantially. Genes, whose expression was reduced, were ADIPOR2, PRKAG2, IRS1, PIK3R1, NFKB1, MAP3K11, BID, CYCS, BAX, CASP3 and TGFB1 (FIG. 1). In our in vivo study, it has been proven on animals that fatty liver was inhibited as a result of the failure of this pathway.

[3] = test system: fatty liver caused by high-fat diet in balb/c mice; test: In vivo experiment: liver weight of high-fat diet mice; conditions: YYD supplemented with 1.5 mg/g SB, 10 weeks, female balb/c mice
Description: (§1) 8-weeks-old female 24 balb/c mice were used for the in vivo experiment. The adaptation process was completed in cages in a temperature-controlled room with a 12-hour light/dark cycle. Then, the mice were divided into four different dietary groups (n=6 for each group): normal diet (2.70 kcal/g), high-fat diet (YYD) (4.00 kcal/g), YYD supplemented with 0.5 mg/g SB, and YYD supplemented with 1.5 mg/g SB. At the end of 10 weeks, mice were sacrificed and weights of their livers were measured. At the end of 10 weeks, the livers of the mice were removed and weighed, and it was observed that fatty liver caused by high-fat diet was inhibited by the use of 1.5 mg/g SB as a supplement (FIG. 2A).

[4] = Toxicology studies in rats adapted to humans; format: in vivo; conditions: daily dose of 500 mg, rat toxicology studies adapted to humans
Description: Today, there is no specific drug for direct treatment of fatty liver. […] It is known that boron homeostasis taken into mammalian systems is excreted via urine within 72 hours. Boron also regulates calcium, potassium and magnesium metabolisms in the body.

[5] = test system: pathological disorders in the liver caused by high-fat diet in balb/c mice; test: Histological evaluation of liver tissue (hematoxylin-eosin staining scores); format: in vivo; conditions: for hematoxylin-eosin staining technique score (Mean ± SD): 10 weeks, n = 6, YYD alone 12.6 ± 1.54, control 1.60 ± 1.14
Description: as §1
Liver tissues of mice were prepared for histological evaluation. These tissue samples were immersed in 10% neutral formaldehyde prepared with 0.1 M phosphate buffer (pH 7.4) for fixation at 4° C. Subsequently, the samples were rinsed in tap water for 12 hours, then dehydrated in an alcohol batch and embedded in paraffin. From samples embedded in paraffin, 5 micron thick samples were obtained using a rotary microtome (Leica RM 2245 model; Leica Instruments, Germany). All tissue sections were taken onto poly-L-lysine coated slides. All these samples were stained with hematoxylin eosin staining technique and imaged under a light microscope (Leica DM6000B). […] This method has been used to evaluate the situation of pathological deteriorations caused by high fat diet when different sodium boron administrations are applied and when not applied.

Row | Compound | time to excretion via urine ([1]; mammalian systems) | side effects ([1]; up to 18 mg of boron daily in adults) | decrease in expression levels of genes in the non-alcoholic fatty liver pathway [2] | fatty liver caused by high-fat diet (liver weight) [3] | side effects [4] | hematoxylin-eosin staining technique score (Mean ± SD) ([5]; YYD + 0.5 mg SB/g VA) | hematoxylin-eosin staining technique score (Mean ± SD) ([5]; YYD + 1.5 mg SB/g VA) | hematoxylin-eosin staining technique score (Mean ± SD) ([5]; YYD + 1.5 mg SB/g VA, listed as sodium borate) | pathological disorders caused by high-fat diet (histological evaluation) ([5]; both doses (0.5 and 1.5 mg/g), liver tissue)
1 | [B] [boron] | ≤ 72 h | does not cause any side effects |  |  |  |  |  |  | 
2 | sodium borate [SB] |  |  | ≥ 2 times | inhibited | no side effects | 8.6±1.14 | 3.6 ± 0.89 | 3.6±0.89 | decreased the pathological disorders

Source: patent US20240000831A1, “MOLECULAR BASIS OF FATTY LIVER INHIBITION BY SODIUM BORATES” (YEDITEPE UNIVERSITESI, priority 2020, published 2024)
